Test results from patent US9096832B2, “Differentiation of human embryonic stem cells” (LifeScan, Inc., priority 2007, dated 2015).

Test system: H9 embryonic stem cells
Experiment: Microarray analysis of definitive endoderm stage cells on […] or MEFs +/- Wnt-3a (Table VI)
Assay type: cell-based, human
Details: log format
[1] = DE treatment in low serum on MATRIGEL
[2] = DE treatment in low serum on MEFS

Activin A: activin A (a member of the TGFβ superfamily), R&D Systems; 'w/o wnt' in Table VII = 100 ng/ml Activin A without Wnt3a
mean normalized intensity: DKFZP566K1924 protein [1]: 2.882 | mean normalized intensity: ESTs, Moderately similar to ALU2_HUMAN ALU SUBFAMILY SB SEQUENCE CONTAMINATION WARNING ENTRY (H. sapiens) [1]: 4.241 | mean normalized intensity: H. sapiens mRNA for B-HLH DNA binding protein. [1]: 5.43 | mean normalized intensity: Homo sapiens BCL2-interacting killer (apoptosis-inducing) (BIK), mRNA. [1]: 4.3 | mean normalized intensity: Homo sapiens Charot-Leyden crystal protein (CLC), mRNA. [1]: 3.301 | mean normalized intensity: Homo sapiens HES-related repressor protein 1 HERP1 mRNA, complete cds. [1]: 2.806 | mean normalized intensity: Homo sapiens HSPC156 protein (HSPC156), mRNA. [1]: 0.7862 | mean normalized intensity: Homo sapiens KIAA0469 gene product (KIAA0469), mRNA. [1]: 4.031 | mean normalized intensity: Homo sapiens PNAS-123 mRNA, complete cds [1]: 1.597 | mean normalized intensity: Homo sapiens Wilms tumor 1 (WT1), transcript variant D, mRNA. [1]: 2.405 | mean normalized intensity: Homo sapiens cDNA FLJ11398 fis, clone HEMBA1000637. [1]: 2.5268 | mean normalized intensity: Homo sapiens cDNA: FLJ22547 fis, clone HSI00356 [1]: 4.294 | mean normalized intensity: Homo sapiens cadherin 6, type 2, K-cadherin (fetal kidney) (CDH6), mRNA. [1]: 0.8248 | mean normalized intensity: Homo sapiens chorionic somatomammotropin hormone 2 (CSH2), transcript variant 1, mRNA. [1]: 1.124 | mean normalized intensity: Homo sapiens chorionic somatomammotropin hormone 2 (CSH2), transcript variant 4, mRNA. [1]: 0.8122 | mean normalized intensity: Homo sapiens galanin receptor 1 (GALR1), mRNA. [1]: 2.507 | mean normalized intensity: Homo sapiens growth hormone 2 (GH2), transcript variant 2, mRNA. [1]: 0.9226 | mean normalized intensity: Homo sapiens hypothetical protein FLJ20075 (FLJ20075), mRNA. [1]: −0.3592 | mean normalized intensity: Homo sapiens mRNA for SCCA2b, complete cds. [1]: 3.329 | mean normalized intensity: Homo sapiens mRNA; cDNA DKFZp586P1124 (from clone DKFZp586P1124) [1]: 0.4856 | mean normalized intensity: Homo sapiens methyl-CpG binding protein MBD2 (MBD2) mRNA, complete cds. [1]: 0.4906 | mean normalized intensity: Homo sapiens tachykinin, precursor 1 (TAC1), transcript variant beta, mRNA. [1]: 2.773 | mean normalized intensity: Homo sapiens testis expressed sequence 14 (TEX14), mRNA. [1]: 3.512 | mean normalized intensity: Homo sapiens, Similar to LIM homeobox protein 8, clone IMAGE: 4839343, mRNA. [1]: −0.06288 | mean normalized intensity: Homo sapiens, Similar to cadherin 6, type 2, K-cadherin (fetal kidney), clone MGC: 1470, mRNA, complete cds. [1]: 2.547 | mean normalized intensity: Homo sapiens, Similar to hypothetical protein FLJ10058, clone MGC: 34305 IMAGE: 5167647, mRNA, complete cds. [1]: 1.698 | mean normalized intensity: Homo sapiens, Similar to hypothetical protein FLJ32001, clone MGC: 39559 IMAGE: 4828136, mRNA, complete cds. [1]: 0.5207 | mean normalized intensity: Homo sapiens, clone IMAGE: 4067166, mRNA [1]: 0.1959 | mean normalized intensity: Homo sapiens, clone IMAGE: 4828836, mRNA. [1]: 0.9729 | mean normalized intensity: Homo sapiens, serine (or cysteine) proteinase inhibitor, clade B (ovalbumin), member 3, clone MGC: 12244, mRNA, complete cds. [1]: 1.969 | mean normalized intensity: Human mRNA upregulated during camptothecin-induced apoptosis of U937 cells. [1]: 0.4945 | mean normalized intensity: Human platelet-derived growth factor alpha-receptor (PDGFRA) mRNA, exons 13-16 [1]: 2.445 | mean normalized intensity: KIAA1151 protein [1]: 0.6425 | mean normalized intensity: caldesmon 1 [1]: 7.092 | mean normalized intensity: nuclear receptor subfamily 1, group I, member 3 [1]: 1.779 | mean normalized intensity: ESTs (DE treatment in low serum on MATRIGEL, gene line r2006): 1.5857 | mean normalized intensity: ESTs (DE treatment in low serum on MATRIGEL, gene line r2025): 1.531 | mean normalized intensity: ESTs (DE treatment in low serum on MATRIGEL, gene line r2032): 0.1336 | mean normalized intensity: paternally expressed 3 (DE treatment in low serum on MATRIGEL, gene line r2033): 2.876 | mean normalized intensity: ESTs (DE treatment in low serum on MATRIGEL, gene line r2038): 3.262 | mean normalized intensity: paternally expressed 3 (DE treatment in low serum on MATRIGEL, gene line r2093): 2.874 | mean normalized intensity: ESTs (DE treatment in low serum on MATRIGEL, gene line r2134): −1.3795 | mean normalized intensity: ESTs (DE treatment in low serum on MATRIGEL, gene line r2148): 4.454 | mean normalized intensity: DKFZP566K1924 protein [2]: 1.391 | mean normalized intensity: ESTs, Moderately similar to ALU2_HUMAN ALU SUBFAMILY SB SEQUENCE CONTAMINATION WARNING ENTRY (H. sapiens) [2]: 3.874 | mean normalized intensity: H. sapiens mRNA for B-HLH DNA binding protein. [2]: 3.451 | mean normalized intensity: Homo sapiens BCL2-interacting killer (apoptosis-inducing) (BIK), mRNA. [2]: 3.562 | mean normalized intensity: Homo sapiens Charot-Leyden crystal protein (CLC), mRNA. [2]: 2.1096 | mean normalized intensity: Homo sapiens HES-related repressor protein 1 HERP1 mRNA, complete cds. [2]: 2.406 | mean normalized intensity: Homo sapiens HSPC156 protein (HSPC156), mRNA. [2]: 1.296 | mean normalized intensity: Homo sapiens KIAA0469 gene product (KIAA0469), mRNA. [2]: 2.565 | mean normalized intensity: Homo sapiens PNAS-123 mRNA, complete cds [2]: 1.847 | mean normalized intensity: Homo sapiens Wilms tumor 1 (WT1), transcript variant D, mRNA. [2]: −2.435 | mean normalized intensity: Homo sapiens cDNA FLJ11398 fis, clone HEMBA1000637. [2]: 1.849 | mean normalized intensity: Homo sapiens cDNA: FLJ22547 fis, clone HSI00356 [2]: 2.095 | mean normalized intensity: Homo sapiens cadherin 6, type 2, K-cadherin (fetal kidney) (CDH6), mRNA. [2]: −0.8763 | mean normalized intensity: Homo sapiens chorionic somatomammotropin hormone 2 (CSH2), transcript variant 1, mRNA. [2]: 2.616 | mean normalized intensity: Homo sapiens chorionic somatomammotropin hormone 2 (CSH2), transcript variant 4, mRNA. [2]: 2.218 | mean normalized intensity: Homo sapiens galanin receptor 1 (GALR1), mRNA. [2]: −0.338 | mean normalized intensity: Homo sapiens growth hormone 2 (GH2), transcript variant 2, mRNA. [2]: 1.4679 | mean normalized intensity: Homo sapiens hypothetical protein FLJ20075 (FLJ20075), mRNA. [2]: −0.06528 | mean normalized intensity: Homo sapiens mRNA for SCCA2b, complete cds. [2]: 0.568 | mean normalized intensity: Homo sapiens mRNA; cDNA DKFZp586P1124 (from clone DKFZp586P1124) [2]: −3.094 | mean normalized intensity: Homo sapiens methyl-CpG binding protein MBD2 (MBD2) mRNA, complete cds. [2]: −1.702 | mean normalized intensity: Homo sapiens tachykinin, precursor 1 (TAC1), transcript variant beta, mRNA. [2]: 1.483 | mean normalized intensity: Homo sapiens testis expressed sequence 14 (TEX14), mRNA. [2]: −1.3824 | mean normalized intensity: Homo sapiens, Similar to LIM homeobox protein 8, clone IMAGE: 4839343, mRNA. [2]: −1.11 | mean normalized intensity: Homo sapiens, Similar to cadherin 6, type 2, K-cadherin (fetal kidney), clone MGC: 1470, mRNA, complete cds. [2]: 2.134 | mean normalized intensity: Homo sapiens, Similar to hypothetical protein FLJ10058, clone MGC: 34305 IMAGE: 5167647, mRNA, complete cds. [2]: 0.2156 | mean normalized intensity: Homo sapiens, Similar to hypothetical protein FLJ32001, clone MGC: 39559 IMAGE: 4828136, mRNA, complete cds. [2]: 1.269 | mean normalized intensity: Homo sapiens, clone IMAGE: 4067166, mRNA [2]: 0.277 | mean normalized intensity: Homo sapiens, clone IMAGE: 4828836, mRNA. [2]: −1.484 | mean normalized intensity: Homo sapiens, serine (or cysteine) proteinase inhibitor, clade B (ovalbumin), member 3, clone MGC: 12244, mRNA, complete cds. [2]: −1.566 | mean normalized intensity: Human mRNA upregulated during camptothecin-induced apoptosis of U937 cells. [2]: −0.1892 | mean normalized intensity: Human platelet-derived growth factor alpha-receptor (PDGFRA) mRNA, exons 13-16 [2]: 2.905 | mean normalized intensity: KIAA1151 protein [2]: 1.009 | mean normalized intensity: caldesmon 1 [2]: 5.634 | mean normalized intensity: nuclear receptor subfamily 1, group I, member 3 [2]: −0.1968 | mean normalized intensity: ESTs (DE treatment in low serum on MEFS, gene line r2006): −1.3 | mean normalized intensity: ESTs (DE treatment in low serum on MEFS, gene line r2025): 1.373 | mean normalized intensity: ESTs (DE treatment in low serum on MEFS, gene line r2032): −1.566 | mean normalized intensity: paternally expressed 3 (DE treatment in low serum on MEFS, gene line r2033): −0.0118 | mean normalized intensity: ESTs (DE treatment in low serum on MEFS, gene line r2038): 1.5682 | mean normalized intensity: paternally expressed 3 (DE treatment in low serum on MEFS, gene line r2093): −3.492
